pIC50: −log10 of the molar value. Like-named read-outs stand apart in the source and are kept apart here.
What was measured:
PLpro from SARS-CoV-2 [1] = biological target: T1, PLpro from SARS-CoV-2 (Severe acute respiratory syndrome coronavirus 2, UniProt P0DTD1); assay: biochemical; format: biochemical
PLpro from SARS-CoV-2 [2] = biological target: T1, PLpro from SARS-CoV-2; assay: biochemical; format: biochemical; parameters: mean (kobs plot, Supplementary Figure 6 II): unit: min^-1
SARS-CoV-2 PLpro = SARS-CoV-2 PLpro (Severe acute respiratory syndrome coronavirus 2, UniProt P0DTD1); assay: biochemical; settings: PLpro 10 nM, ISG15-CHOP2
UCHL1 = biological target: T2, UCHL1 (Homo sapiens, UniProt P09936); assay: biochemical; settings: UCHL1 10 nM, Ub-rhodamine110
T2 construct: purchased LifeSensors, Inc. (Malvern, PA)
T2 sequence (P09936 whole entry): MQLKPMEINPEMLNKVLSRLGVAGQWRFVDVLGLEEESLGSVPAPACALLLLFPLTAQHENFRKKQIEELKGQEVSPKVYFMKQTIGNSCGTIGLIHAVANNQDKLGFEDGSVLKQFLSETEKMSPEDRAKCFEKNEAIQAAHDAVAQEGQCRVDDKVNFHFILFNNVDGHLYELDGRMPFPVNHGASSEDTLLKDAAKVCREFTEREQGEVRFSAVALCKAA

Vero E6 cells = settings: African green monkey, 48 h
[3] = Metabolic stability in rat liver microsomes; settings: Sprague-Dawley
[4] = Metabolic stability in human liver microsomes
[5] = Metabolic stability in human liver S9 fraction

`C[C@@H](NC(=O)c1ccccc1CCC(=O)NNC(=O)CCl)c1cccc2ccccc12` [Compound 9, (R)-2-(3-(2-(2-chloroacetyl)hydrazineyl)-3-oxopropyl)-N-(1-(naphthalen-1-yl)ethyl)benzamide] showed a remaining activity at 6.34 µM (PLpro from SARS-CoV-2 [1]; 0.5 h, inhibitor 6.34 uM) of 38.1%, a remaining activity at 20 µM (PLpro from SARS-CoV-2 [1]; 0.5 h, inhibitor 20.00 uM) of 17.8% and a pIC50 (PLpro from SARS-CoV-2 [1]; after 30-min incubation, purified PLpro, Z-RLRGG-AMC substrate) of 5.27. For the same molecule, the kinact/KI (PLpro from SARS-CoV-2 [2]) was 110 M⁻¹ s⁻¹, the remaining activity at 1 µM (PLpro from SARS-CoV-2 [2]; 5 min, read-out: PLpro activity after preincubation, inhibitor 1 uM, preincubation 5 min) was 103% and the remaining activity at 4 µM (PLpro from SARS-CoV-2 [2]; 5 min, read-out: PLpro activity after preincubation, inhibitor 4 uM, preincubation 5 min) was 97.6%. The remaining activity at 5 µM (PLpro from SARS-CoV-2 [2]; 5 min, read-out: PLpro activity after preincubation, inhibitor 5 uM, preincubation 5 min) was 92.9%, the remaining activity at 10 µM (PLpro from SARS-CoV-2 [2]; 5 min, read-out: PLpro activity after preincubation, inhibitor 10 uM, preincubation 5 min) was 78.5% and the remaining activity at 15 µM (PLpro from SARS-CoV-2 [2]; 5 min, read-out: PLpro activity after preincubation, inhibitor 15 uM, preincubation 5 min) was 66.8%. The remaining activity at 25 µM (PLpro from SARS-CoV-2 [2]; 5 min, read-out: PLpro activity after preincubation, inhibitor 25 uM, preincubation 5 min) was 57.8%, the remaining activity at 30 µM (PLpro from SARS-CoV-2 [2]; 5 min, read-out: PLpro activity after preincubation, inhibitor 30 uM, preincubation 5 min) was 62% and the remaining activity at 36 µM (PLpro from SARS-CoV-2 [2]; 5 min, read-out: PLpro activity after preincubation, inhibitor 36 uM, preincubation 5 min) was 57.3%. The remaining activity at 1 µM (PLpro from SARS-CoV-2 [2]; 10 min, read-out: PLpro activity after preincubation, inhibitor 1 uM, preincubation 10 min) was 103%, the remaining activity at 2 µM (PLpro from SARS-CoV-2 [2]; 10 min, read-out: PLpro activity after preincubation, inhibitor 2 uM, preincubation 10 min) was 93.2% and the remaining activity at 5 µM (PLpro from SARS-CoV-2 [2]; 10 min, read-out: PLpro activity after preincubation, inhibitor 5 uM, preincubation 10 min) was 74%. For the same molecule, the remaining activity at 10 µM (PLpro from SARS-CoV-2 [2]; 10 min, read-out: PLpro activity after preincubation, inhibitor 10 uM, preincubation 10 min) was 53.4%, the remaining activity at 15 µM (PLpro from SARS-CoV-2 [2]; 10 min, read-out: PLpro activity after preincubation, inhibitor 15 uM, preincubation 10 min) was 47.4% and the remaining activity at 25 µM (PLpro from SARS-CoV-2 [2]; 10 min, read-out: PLpro activity after preincubation, inhibitor 25 uM, preincubation 10 min) was 38.1%. It also gave a remaining activity at 30 µM (PLpro from SARS-CoV-2 [2]; 10 min, read-out: PLpro activity after preincubation, inhibitor 30 uM, preincubation 10 min) of 42.9%, a remaining activity at 36 µM (PLpro from SARS-CoV-2 [2]; 10 min, read-out: PLpro activity after preincubation, inhibitor 36 uM, preincubation 10 min) of 38.6% and a remaining activity at 2 µM (PLpro from SARS-CoV-2 [2]; 20 min, read-out: PLpro activity after preincubation, inhibitor 2 uM, preincubation 20 min) of 77.2%. The remaining activity at 8 µM (PLpro from SARS-CoV-2 [2]; 20 min, read-out: PLpro activity after preincubation, inhibitor 8 uM, preincubation 20 min) was 39.6%, the remaining activity at 1 µM (PLpro from SARS-CoV-2 [2]; 0.5 h, read-out: PLpro activity after preincubation, inhibitor 1 uM, preincubation 30 min) was 83.9% and the remaining activity at 2 µM (PLpro from SARS-CoV-2 [2]; 0.5 h, read-out: PLpro activity after preincubation, inhibitor 2 uM, preincubation 30 min) was 68.5%. For the same molecule, the remaining activity at 4 µM (PLpro from SARS-CoV-2 [2]; 0.5 h, read-out: PLpro activity after preincubation, inhibitor 4 uM, preincubation 30 min) was 44.8%, the remaining activity at 5 µM (PLpro from SARS-CoV-2 [2]; 0.5 h, read-out: PLpro activity after preincubation, inhibitor 5 uM, preincubation 30 min) was 40.6% and the remaining activity at 8 µM (PLpro from SARS-CoV-2 [2]; 0.5 h, read-out: PLpro activity after preincubation, inhibitor 8 uM, preincubation 30 min) was 30.9%. It also gave a remaining activity at 10 µM (PLpro from SARS-CoV-2 [2]; 0.5 h, read-out: PLpro activity after preincubation, inhibitor 10 uM, preincubation 30 min) of 31.6%, a remaining activity at 15 µM (PLpro from SARS-CoV-2 [2]; 0.5 h, read-out: PLpro activity after preincubation, inhibitor 15 uM, preincubation 30 min) of 12.2% and a remaining activity at 25 µM (PLpro from SARS-CoV-2 [2]; 0.5 h, read-out: PLpro activity after preincubation, inhibitor 25 uM, preincubation 30 min) of 10.3%. For the same molecule, the remaining activity at 30 µM (PLpro from SARS-CoV-2 [2]; 0.5 h, read-out: PLpro activity after preincubation, inhibitor 30 uM, preincubation 30 min) was 13.7%, the remaining activity at 36 µM (PLpro from SARS-CoV-2 [2]; 0.5 h, read-out: PLpro activity after preincubation, inhibitor 36 uM, preincubation 30 min) was 12.5% and the remaining activity at 1 µM (PLpro from SARS-CoV-2 [2]; 1 h, read-out: PLpro activity after preincubation, inhibitor 1 uM, preincubation 60 min) was 68.1%. For the same molecule, the remaining activity at 2 µM (PLpro from SARS-CoV-2 [2]; 1 h, read-out: PLpro activity after preincubation, inhibitor 2 uM, preincubation 60 min) was 42.3%, the remaining activity at 4 µM (PLpro from SARS-CoV-2 [2]; 1 h, read-out: PLpro activity after preincubation, inhibitor 4 uM, preincubation 60 min) was 21.8% and the remaining activity at 5 µM (PLpro from SARS-CoV-2 [2]; 1 h, read-out: PLpro activity after preincubation, inhibitor 5 uM, preincubation 60 min) was 16.1%. The remaining activity at 8 µM (PLpro from SARS-CoV-2 [2]; 1 h, read-out: PLpro activity after preincubation, inhibitor 8 uM, preincubation 60 min) was 10.3%, the remaining activity at 15 µM (PLpro from SARS-CoV-2 [2]; 1 h, read-out: PLpro activity after preincubation, inhibitor 15 uM, preincubation 60 min) was 7.87% and the remaining activity at 25 µM (PLpro from SARS-CoV-2 [2]; 1 h, read-out: PLpro activity after preincubation, inhibitor 25 uM, preincubation 60 min) was 12.5%. It also gave a remaining activity at 2 µM (PLpro from SARS-CoV-2 [2]; 85 min, read-out: PLpro activity after preincubation, inhibitor 2 uM, preincubation 85 min) of 29.8%, a remaining activity at 2 µM (PLpro from SARS-CoV-2 [2]; 110 min, read-out: PLpro activity after preincubation, inhibitor 2 uM, preincubation 110 min) of 18% and a remaining activity at 1 µM (PLpro from SARS-CoV-2 [2]; […], read-out: PLpro activity after preincubation, inhibitor 1 uM, preincubation 15 min) of 93.3%. The remaining activity at 1 µM (PLpro from SARS-CoV-2 [2]; […], read-out: PLpro activity after preincubation, inhibitor 1 uM, preincubation 45 min) was 79.9%, the remaining activity at 1 µM (PLpro from SARS-CoV-2 [2]; […], read-out: PLpro activity after preincubation, inhibitor 1 uM, preincubation 90 min) was 54% and the remaining activity at 2 µM (PLpro from SARS-CoV-2 [2]; […], read-out: PLpro activity after preincubation, inhibitor 2 uM, preincubation 45 min) was 56.1%. For the same molecule, the remaining activity at 4 µM (PLpro from SARS-CoV-2 [2]; […], read-out: PLpro activity after preincubation, inhibitor 4 uM, preincubation 15 min) was 73.3%, the remaining activity at 4 µM (PLpro from SARS-CoV-2 [2]; […], read-out: PLpro activity after preincubation, inhibitor 4 uM, preincubation 45 min) was 30.6% and the remaining activity at 4 µM (PLpro from SARS-CoV-2 [2]; […], read-out: PLpro activity after preincubation, inhibitor 4 uM, preincubation 90 min) was 18.5%. For the same molecule, the remaining activity at 5 µM (PLpro from SARS-CoV-2 [2]; […], read-out: PLpro activity after preincubation, inhibitor 5 uM, preincubation 15 min) was 57.4%, the remaining activity at 5 µM (PLpro from SARS-CoV-2 [2]; […], read-out: PLpro activity after preincubation, inhibitor 5 uM, preincubation 45 min) was 20.3% and the remaining activity at 5 µM (PLpro from SARS-CoV-2 [2]; […], read-out: PLpro activity after preincubation, inhibitor 5 uM, preincubation 90 min) was 9.23%. It also gave a remaining activity at 8 µM (PLpro from SARS-CoV-2 [2]; […], read-out: PLpro activity after preincubation, inhibitor 8 uM, preincubation 45 min) of 12.3%, a remaining activity at 10 µM (PLpro from SARS-CoV-2 [2]; […], read-out: PLpro activity after preincubation, inhibitor 10 uM, preincubation 15 min) of 49.7% and a remaining activity at 10 µM (PLpro from SARS-CoV-2 [2]; […], read-out: PLpro activity after preincubation, inhibitor 10 uM, preincubation 45 min) of 14.1%. The remaining activity at 15 µM (PLpro from SARS-CoV-2 [2]; […], read-out: PLpro activity after preincubation, inhibitor 15 uM, preincubation 15 min) was 40.2%, the remaining activity at 15 µM (PLpro from SARS-CoV-2 [2]; […], read-out: PLpro activity after preincubation, inhibitor 15 uM, preincubation 45 min) was 10.8% and the remaining activity at 15 µM (PLpro from SARS-CoV-2 [2]; […], read-out: PLpro activity after preincubation, inhibitor 15 uM, preincubation 90 min) was 12.6%. The remaining activity at 25 µM (PLpro from SARS-CoV-2 [2]; […], read-out: PLpro activity after preincubation, inhibitor 25 uM, preincubation 15 min) was 17.8%, the remaining activity at 25 µM (PLpro from SARS-CoV-2 [2]; […], read-out: PLpro activity after preincubation, inhibitor 25 uM, preincubation 90 min) was 10.7% and the remaining activity at 30 µM (PLpro from SARS-CoV-2 [2]; […], read-out: PLpro activity after preincubation, inhibitor 30 uM, preincubation 15 min) was 29.9%. It also gave a remaining activity at 30 µM (PLpro from SARS-CoV-2 [2]; […], read-out: PLpro activity after preincubation, inhibitor 30 uM, preincubation 45 min) of 6.98%, a remaining activity at 36 µM (PLpro from SARS-CoV-2 [2]; […], read-out: PLpro activity after preincubation, inhibitor 36 uM, preincubation 15 min) of 18% and a remaining activity at 36 µM (PLpro from SARS-CoV-2 [2]; […], read-out: PLpro activity after preincubation, inhibitor 36 uM, preincubation 45 min) of 6.34%. For the same molecule, the “Time dep. (time-dependent inhibition)” value (PLpro from SARS-CoV-2 [2]; fluorogenic peptide assay, varied preincubation time) was “Yes”, the “mean (kobs plot, Supplementary Figure 6 II)” value (“mean” below) (PLpro from SARS-CoV-2 [2]; inhibitor 1 uM) was 0.0070 and the “mean” value (PLpro from SARS-CoV-2 [2]; inhibitor 2 uM) was 0.0147. For the same molecule, the “mean” value (PLpro from SARS-CoV-2 [2]; inhibitor 4 uM) was 0.0210, the “mean” value (PLpro from SARS-CoV-2 [2]; inhibitor 5 uM) was 0.0344 and the “mean” value (PLpro from SARS-CoV-2 [2]; inhibitor 8 uM) was 0.0503. The “mean” value (PLpro from SARS-CoV-2 [2]; inhibitor 10 uM) was 0.0558, the “mean” value (PLpro from SARS-CoV-2 [2]; inhibitor 13 uM) was 0.0770 and the “mean” value (PLpro from SARS-CoV-2 [2]; inhibitor 15 uM) was 0.0658. For the same molecule, the “mean” value (PLpro from SARS-CoV-2 [2]; inhibitor 25 uM) was 0.0896, the “mean” value (PLpro from SARS-CoV-2 [2]; inhibitor 30 uM) was 0.0802 and the “mean” value (PLpro from SARS-CoV-2 [2]; inhibitor 36 uM) was 0.0968. The Hill slope (SARS-CoV-2 PLpro) was 0.817, the pIC50 (SARS-CoV-2 PLpro) was 4.69 and the pIC50 (UCHL1) was less than 4.52. For the same molecule, the “cytotoxicity, %cell viability” value (Vero E6 cells; 2.08 µM) was 100.620%, the “cytotoxicity, %cell viability” value (Vero E6 cells; 8.33 µM) was 103.333% and the “cytotoxicity, %cell viability” value (Vero E6 cells; 16.65 µM) was 94.042%. For the same molecule, the half-life [3] was 13 min, the microsomal CLint [3] was 515 µL/min/mg and the half-life [4] was 7 min. It also gave a microsomal CLint [4] of 975 µL/min/mg, a half-life [5] of 3 min and a microsomal CLint [5] of 689 µL/min/mg.

Reference: article PMC10044120, “Potent and selective covalent inhibition of the papain-like protease from SARS-CoV-2” (Nature Communications, 2023)
